Data published in the NIST ThermoML archive (doi:10.1016/j.tca.2013.05.017).
Where “and” joins values, the source holds several entries; their conditions need not be identical. Equal entries are not always repeated. ± gives the expanded uncertainty stated by the source.

Assay: molar heat capacity at constant pressure
Conditions: 101.33 kPa, Crystal 2, Small (less than 1 g) adiabatic calorimetry

O=S(=O)([O-])[O-].[Sr+2] [sulfuric acid, strontium salt (1:1)]
molar heat capacity at constant pressure (56.51 K): 30.49 ± 0.25 J/K/mol | molar heat capacity at constant pressure (58.44 K): 31.73 ± 0.26 J/K/mol | molar heat capacity at constant pressure (58.49 K): 31.79 ± 0.26 J/K/mol | molar heat capacity at constant pressure (60 K): 33.05 ± 0.27 J/K/mol | molar heat capacity at constant pressure (60.44 K): 33.28 ± 0.27 J/K/mol | molar heat capacity at constant pressure (60.48 K): 33.28 ± 0.27 J/K/mol | molar heat capacity at constant pressure (62.43 K): 34.65 ± 0.27 J/K/mol | molar heat capacity at constant pressure (62.46 K): 34.66 ± 0.27 J/K/mol | molar heat capacity at constant pressure (64.42 K): 35.97 ± 0.28 J/K/mol | molar heat capacity at constant pressure (64.44 K): 35.9 ± 0.28 J/K/mol | molar heat capacity at constant pressure (65 K): 36.36 ± 0.28 J/K/mol | molar heat capacity at constant pressure (66.35 K): 37.12 ± 0.29 J/K/mol and 37.15 ± 0.29 J/K/mol | molar heat capacity at constant pressure (68.19 K): 38.26 ± 0.29 J/K/mol | molar heat capacity at constant pressure (68.21 K): 38.27 ± 0.29 J/K/mol | molar heat capacity at constant pressure (69.98 K): 39.31 ± 0.3 J/K/mol | molar heat capacity at constant pressure (70 K): 39.32 ± 0.3 J/K/mol and 39.45 ± 0.3 J/K/mol | molar heat capacity at constant pressure (72.35 K): 40.74 ± 0.3 J/K/mol | molar heat capacity at constant pressure (72.39 K): 40.75 ± 0.3 J/K/mol | molar heat capacity at constant pressure (75 K): 42.32 ± 0.31 J/K/mol | molar heat capacity at constant pressure (75.34 K): 42.37 ± 0.31 J/K/mol | molar heat capacity at constant pressure (75.41 K): 42.41 ± 0.31 J/K/mol | molar heat capacity at constant pressure (78.33 K): 43.98 ± 0.32 J/K/mol | molar heat capacity at constant pressure (78.44 K): 44.04 ± 0.32 J/K/mol | molar heat capacity at constant pressure (79.87 K): 44.73 ± 0.32 J/K/mol | molar heat capacity at constant pressure (80 K): 44.96 ± 0.33 J/K/mol | molar heat capacity at constant pressure (81.29 K): 45.47 ± 0.33 J/K/mol | molar heat capacity at constant pressure (81.33 K): 45.52 ± 0.33 J/K/mol | molar heat capacity at constant pressure (81.48 K): 45.58 ± 0.33 J/K/mol | molar heat capacity at constant pressure (83.56 K): 46.57 ± 0.33 J/K/mol | molar heat capacity at constant pressure (84.99 K): 47.25 ± 0.34 J/K/mol | molar heat capacity at constant pressure (85 K): 47.4 ± 0.34 J/K/mol | molar heat capacity at constant pressure (85.53 K): 47.51 ± 0.34 J/K/mol | molar heat capacity at constant pressure (85.54 K): 47.52 ± 0.34 J/K/mol | molar heat capacity at constant pressure (86.61 K): 48.03 ± 0.34 J/K/mol | molar heat capacity at constant pressure (88.05 K): 48.76 ± 0.34 J/K/mol | molar heat capacity at constant pressure (89.26 K): 49.19 ± 0.35 J/K/mol | molar heat capacity at constant pressure (89.28 K): 49.23 ± 0.35 J/K/mol | molar heat capacity at constant pressure (89.67 K): 49.42 ± 0.35 J/K/mol | molar heat capacity at constant pressure (90 K): 49.69 ± 0.4 J/K/mol | molar heat capacity at constant pressure (92.33 K): 50.55 ± 0.4 J/K/mol | molar heat capacity at constant pressure (92.35 K): 50.59 ± 0.4 J/K/mol | molar heat capacity at constant pressure (92.74 K): 50.75 ± 0.4 J/K/mol | molar heat capacity at constant pressure (95 K): 51.83 ± 0.41 J/K/mol | molar heat capacity at constant pressure (95.41 K): 51.85 ± 0.41 J/K/mol | molar heat capacity at constant pressure (95.43 K): 51.89 ± 0.41 J/K/mol | molar heat capacity at constant pressure (95.81 K): 52.06 ± 0.41 J/K/mol | molar heat capacity at constant pressure (98.5 K): 53.08 ± 0.41 J/K/mol | molar heat capacity at constant pressure (98.51 K): 53.12 ± 0.41 J/K/mol | molar heat capacity at constant pressure (98.89 K): 53.27 ± 0.41 J/K/mol | molar heat capacity at constant pressure (100 K): 53.84 ± 0.42 J/K/mol | molar heat capacity at constant pressure (101.59 K): 54.27 ± 0.42 J/K/mol | molar heat capacity at constant pressure (101.61 K): 54.31 ± 0.42 J/K/mol | molar heat capacity at constant pressure (101.98 K): 54.46 ± 0.42 J/K/mol | molar heat capacity at constant pressure (104.69 K): 55.44 ± 0.42 J/K/mol | molar heat capacity at constant pressure (104.71 K): 55.47 ± 0.42 J/K/mol | molar heat capacity at constant pressure (105.08 K): 55.61 ± 0.42 J/K/mol | molar heat capacity at constant pressure (107.8 K): 56.58 ± 0.43 J/K/mol | molar heat capacity at constant pressure (107.82 K): 56.6 ± 0.43 J/K/mol | molar heat capacity at constant pressure (108.19 K): 56.76 ± 0.43 J/K/mol | molar heat capacity at constant pressure (110 K): 57.52 ± 0.43 J/K/mol | molar heat capacity at constant pressure (110.92 K): 57.67 ± 0.43 J/K/mol | molar heat capacity at constant pressure (110.94 K): 57.74 ± 0.43 J/K/mol | molar heat capacity at constant pressure (111.31 K): 57.81 ± 0.43 J/K/mol | molar heat capacity at constant pressure (114.04 K): 58.72 ± 0.44 J/K/mol | molar heat capacity at constant pressure (114.06 K): 58.77 ± 0.44 J/K/mol | molar heat capacity at constant pressure (114.43 K): 58.88 ± 0.44 J/K/mol | molar heat capacity at constant pressure (117.18 K): 59.76 ± 0.44 J/K/mol | molar heat capacity at constant pressure (117.2 K): 59.81 ± 0.44 J/K/mol | molar heat capacity at constant pressure (117.56 K): 59.97 ± 0.44 J/K/mol | molar heat capacity at constant pressure (120 K): 60.88 ± 0.44 J/K/mol | molar heat capacity at constant pressure (120.32 K): 60.79 ± 0.44 J/K/mol | molar heat capacity at constant pressure (120.33 K): 60.87 ± 0.44 J/K/mol | molar heat capacity at constant pressure (120.71 K): 60.96 ± 0.44 J/K/mol | molar heat capacity at constant pressure (123.46 K): 61.8 ± 0.45 J/K/mol | molar heat capacity at constant pressure (123.49 K): 61.84 ± 0.45 J/K/mol | molar heat capacity at constant pressure (123.85 K): 61.96 ± 0.45 J/K/mol | molar heat capacity at constant pressure (126.62 K): 62.8 ± 0.45 J/K/mol | molar heat capacity at constant pressure (126.64 K): 62.83 ± 0.45 J/K/mol | molar heat capacity at constant pressure (127.01 K): 62.93 ± 0.45 J/K/mol | molar heat capacity at constant pressure (129.77 K): 63.78 ± 0.46 J/K/mol | molar heat capacity at constant pressure (129.8 K): 63.86 ± 0.46 J/K/mol | molar heat capacity at constant pressure (130 K): 64.04 ± 0.46 J/K/mol | molar heat capacity at constant pressure (130.19 K): 63.91 ± 0.46 J/K/mol | molar heat capacity at constant pressure (132.94 K): 64.72 ± 0.46 J/K/mol | molar heat capacity at constant pressure (132.97 K): 64.77 ± 0.46 J/K/mol | molar heat capacity at constant pressure (133.35 K): 64.93 ± 0.46 J/K/mol | molar heat capacity at constant pressure (136.13 K): 65.69 ± 0.46 J/K/mol | molar heat capacity at constant pressure (136.16 K): 65.79 ± 0.46 J/K/mol | molar heat capacity at constant pressure (136.53 K): 65.82 ± 0.46 J/K/mol | molar heat capacity at constant pressure (139.32 K): 66.68 ± 0.47 J/K/mol | molar heat capacity at constant pressure (139.35 K): 66.65 ± 0.47 J/K/mol | molar heat capacity at constant pressure (139.72 K): 66.8 ± 0.47 J/K/mol | molar heat capacity at constant pressure (140 K): 67.03 ± 0.47 J/K/mol | molar heat capacity at constant pressure (142.51 K): 67.53 ± 0.47 J/K/mol | molar heat capacity at constant pressure (142.54 K): 67.62 ± 0.47 J/K/mol | molar heat capacity at constant pressure (142.91 K): 67.65 ± 0.47 J/K/mol
